# Data as given in patent US20150175655A1 (priority 2012, published 2015).
# Target: T1, NS3 genotype 3a protease (UniProt Q81258)
# T1 construct: Purified NS3 protease domain (amino acids 1-181) of the genotype 1b and 3a virus were generated as above; fused on or other part: N-terminal hexahistidine tag and rTEV protease cleavage site (vector p28-N6H-Tev-NS3(181)3)
# T1 sequence (Q81258 1033-1663): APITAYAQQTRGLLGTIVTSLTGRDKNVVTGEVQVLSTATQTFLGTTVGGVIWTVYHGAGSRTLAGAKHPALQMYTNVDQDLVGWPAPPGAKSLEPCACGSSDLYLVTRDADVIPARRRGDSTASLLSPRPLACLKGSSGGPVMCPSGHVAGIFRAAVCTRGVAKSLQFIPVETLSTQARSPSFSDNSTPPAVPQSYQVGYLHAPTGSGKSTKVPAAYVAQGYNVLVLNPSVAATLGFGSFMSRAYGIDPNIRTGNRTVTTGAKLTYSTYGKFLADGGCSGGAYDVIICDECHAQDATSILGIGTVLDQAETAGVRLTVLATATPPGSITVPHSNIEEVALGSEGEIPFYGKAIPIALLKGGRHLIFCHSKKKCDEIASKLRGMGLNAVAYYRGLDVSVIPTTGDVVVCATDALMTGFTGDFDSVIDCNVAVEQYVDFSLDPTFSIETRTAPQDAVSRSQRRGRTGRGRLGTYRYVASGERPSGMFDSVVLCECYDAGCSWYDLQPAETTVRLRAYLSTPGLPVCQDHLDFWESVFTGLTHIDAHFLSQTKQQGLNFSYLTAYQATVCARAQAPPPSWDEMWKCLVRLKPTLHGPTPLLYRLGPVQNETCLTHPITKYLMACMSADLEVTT
# Experiment: Ki determination, NS3 protease genotype 3a (fluorogenic depsipeptide substrate)
# Assay type: biochemical, hepatitis C virus
# Conditions: 200 pM enzyme, 20 μM NS4A peptide, 2 μM substrate, read-out: Ki 3A
# Text: The coding sequences for the genotype 3 HCV protease domain was amplified by RT-PCR using a Titan One Tube RT-PCR Kit (Roche, Indianapolis, Ind.) and RNA extracted from HCV-positive human serum (BBI Diagnostics, MA) using a QIAmp UltraSens Virus Kit (Qiagen, Valencia, Calif.). 5′ PCR primers were designed to encode N-terminal hexahistidine tags and to insert in-frame rTEV protease cleavage sites into the NS3 protease coding sequences. The resulting DNA fragments were cloned into pET28 yielding the expression vectors p28-N6H-Tev-NS3(181)1a and p28-N6H-Tev-NS3(181)3, respectively.
# BL21AI bacteria (Invitrogen, Carlsbad, Calif.) were transformed with genotype 1b or 3 NS3 expression vectors and used to inoculate a 20 L fermentation vessel (Sartorius BBI System Inc., Bethlehem, Pa.), containing 18 L of fresh 2YT medium supplemented with 50 μg/mL kanamycin. When cell densities reached an OD600 of 1, the temperature of the cultures was reduced from 37° C. to 28° C. and induction was immediately initiated by the addition of 30 μM ZnSO4, 14 mM L-arabinose and 1 mM Isopropyl β-D-thiogalactoside (IPTG) final concentrations. Cells were harvested by centrifugation four hours post-induction and were stored as frozen pellets at −80° C. prior to NS3 protein purification.
# Bacterial pellets collected from the expression of genotype 3 HCV NS3 protease were homogenized in Lysis Buffer (25 mM tris, pH 7.5 buffer containing 150 mM NaCl and 1 mM phenylmethanesulfonyl fluoride (PMSF)) and passed through a microfluidizer at 18,000 pounds/in^2. Homogenized cell lysates were centrifuged at 30,000×g for 30 minutes at 4° C. The resulting P1 pellets were washed with Wash Buffer I (25 mM tris, pH 7.5 containing 1% CHAPS) followed by centrifugation at 10,000×g for 30 minutes at 4° C. […] The resulting P3 pellets were resuspended in Solubilization Buffer (20 ml of 25 mM tris, pH 7.5 containing 150 mM NaCl and 8 M urea) and incubated at 4° C. for one hour. Solubilized proteins were passed through a 0.45 micron filter. Protein concentrations were measured and the solutions were adjusted to 40 mM DTT, incubated for 30 minutes at 4° C. and then quickly diluted into Refolding Buffer (25 mM tris, pH 8.5, 0.8 M Guanidine-HCl, 0.4 M L-Arginine, 10 mM ZnSO4) while stirring. Protein solutions were incubated at 4° C. overnight to allow refolding. Refolded proteases were centrifuged at 30,000×g for 10 minutes to remove residual precipitates. Final protein concentrations were then measured and the NS3 proteases were aliquoted, snap frozen in liquid nitrogen and stored at −80° C.
# Purified NS3 protease domain (amino acids 1-181) of the genotype 1b and 3a virus were generated as above. The internally quenched fluorogenic depsipeptide substrate Ac-DED(Edans)-EEAbuψ[COO]ASK(Dabcyl)-NH2 and a synthetic peptide containing the hydrophobic core residues of the NS4A protein cofactor ([…]; NS4A peptide) were obtained from Anaspec, Inc. (San Jose, Calif.). Other chemicals and biochemicals were of reagent grade or better and were purchased from standard suppliers.
# Reactions were run at room temperature in buffer consisting of 50 mM HEPES, 40% glycerol, 0.05% Triton X-100, 10 mM DTT, and 10% DMSO. The final assay solutions contained 50 pM NS3 genotype 1b protease or 200 pM genotype 3a protease, 20 μM NS4A peptide, and 4 μM substrate (genotype 1 b) or 2 μM substrate (genotype 3a). Inhibitor concentrations varied from 100 nM to 5 pM in 3-fold dilutions, and no-inhibitor controls were included.
# Compound dilutions were made in DMSO at 20× final concentration. Reaction mixtures were prepared in 96-well assay plates. A solution of enzyme and NS4A peptide in assay buffer (25 μL volume with both reagents at 4× final concentration) was mixed with 45 μL assay buffer and 5 μL of either inhibitor or DMSO, and pre-incubated at room temperature for 1 hour. The reaction was started by addition of 25 μL substrate solution at 4× final concentration. […]
row,SMILES,Ki [nM]
1,"CC[C@@H]1[C@@H]2CN(C(=O)[C@H](C(C)(C)C)NC(=O)O[C@@H]3C[C@H]3CCCCCc3nc4ccc(OC)cc4nc3O2)[C@@H]1C(=O)N[C@]1(C(=O)NS(=O)(=O)C2(Cl)CC2)C[C@H]1C(F)F [Example 75, (1aR,5S,8S,9S,10R,22aR)-5-tert-butyl-N-[(1R,2R)-1-{[(1-chlorocyclopropyl)sulfonyl]carbamoyl}-2-(difluoromethyl)cyclopropyl]-9-ethyl-14-methoxy-3,6-dioxo-1,1a,3,4,5,6,9,10,18,19,20,21,22,22a-tetradecahydro-8H-7,10-methanocyclopropa[18,19][1,10,3,6]dioxadiazacyclononadecino[11,12-b]quinoxaline-8-carboxamide]",0.12
2,"CC[C@@H]1[C@@H]2CN(C(=O)[C@H](C(C)(C)C)NC(=O)O[C@@H]3C[C@H]3CCCCCc3nc4ccc(OC)cc4nc3O2)[C@@H]1C(=O)N[C@]1(C(=O)NS(=O)(=O)C2(C)CC2)C[C@H]1CC [Example 4, (1aR,5S,8S,9S,10R,22aR)-5-tert-butyl-9-ethyl-N-[(1R,2R)-2-ethyl-1-{[(1-methylcyclopropyl)sulfonyl]carbamoyl}cyclopropyl]-14-methoxy-3,6-dioxo-1,1a,3,4,5,6,9,10,18,19,20,21,22,22a-tetradecahydro-8H-7,10-methanocyclopropa[18,19][1,10,3,6]dioxadiazacyclononadecino[11,12-b]quinoxaline-8-carboxamide]",0.56
3,"CC[C@@H]1[C@@H]2CN(C(=O)[C@H](C(C)(C)C)NC(=O)O[C@@H]3C[C@H]3CCCCCc3nc4ccc(OC)cc4nc3O2)[C@@H]1C(=O)N[C@]1(C(=O)NS(=O)(=O)C2CC2)C[C@H]1C(F)F [Example 2, (1aR,5S,8S,9S,10R,22aR)-5-tert-butyl-N-[(1R,2R)-1-[(cyclopropylsulfonyl)carbamoyl]-2-(difluoromethyl)cyclopropyl]-9-ethyl-14-methoxy-3,6-dioxo-1,1a,3,4,5,6,9,10,18,19,20,21,22,22a-tetradecahydro-8H-7,10-methanocyclopropa[18,19][1,10,3,6]dioxadiazacyclononadecino[11,12-b]quinoxaline-8-carboxamide]",0.04
4,"CC[C@@H]1[C@@H]2CN(C(=O)[C@H](C(C)(C)C)NC(=O)O[C@]3(C)CCC[C@H]3CCCCCc3nc4ccc(OC)cc4nc3O2)[C@@H]1C(=O)N[C@]1(C(=O)NS(=O)(=O)C2(C)CC2)C[C@H]1CC [Example 56, (3aR,7S,10S,11S,12R,24aR)-7-tert-butyl-11-ethyl-N-[(1R,2R)-2-ethyl-1-{[(1-methylcyclopropyl)sulfonyl]carbamoyl}cyclopropyl]-16-methoxy-3a-methyl-5,8-dioxo-1,2,3,3a,5,6,7,8,11,12,20,21,22,23,24,24a-hexadecahydro-10H-9,12-methanocyclopenta[18,19][1,10,3,6]dioxadiazacyclononadecino[11,12-b]quinoxaline-10-carboxamide]",1
5,"CC[C@@H]1[C@@H]2CN(C(=O)[C@H](C(C)(C)C)NC(=O)O[C@@H]3C[C@H]3CCCCC(F)c3nc4ccc(OC)cc4nc3O2)[C@@H]1C(=O)N[C@]1(C(=O)NS(=O)(=O)C2(C)CC2)C[C@H]1C(F)F (stereo partly drawn) [Example 90, (1aR,5S,8S,9S,10R,22aR)-5-tert-butyl-N-[(1R,2R)-2-(difluoromethyl)-1-{[(1-methylcyclopropyl)sulfonyl]carbamoyl}cyclopropyl]-9-ethyl-18-fluoro-14-methoxy-3,6-dioxo-1,1a,3,4,5,6,9,10,18,19,20,21,22,22a-tetradecahydro-8H-7,10-methanocyclopropa[18,19][1,10,3,6]dioxadiazacyclononadecino[11,12-b]quinoxaline-8-carboxamide]",0.13
6,"CC[C@@H]1[C@@H]2CN(C(=O)[C@H](C(C)(C)C)NC(=O)O[C@@H]3C[C@H]3CCCCC(F)(F)c3nc4ccc(OC)cc4nc3O2)[C@@H]1C(=O)N[C@]1(C(=O)NS(=O)(=O)C2CC2)C[C@H]1CC [Example 34, (1aR,5S,8S,9S,10R,22aR)-5-tert-butyl-N-{(1R,2R)-1-[(cyclopropylsulfonyl)carbamoyl]-2-ethylcyclopropyl}-9-ethyl-18,18-difluoro-14-methoxy-3,6-dioxo-1,1a,3,4,5,6,9,10,18,19,20,21,22,22a-tetradecahydro-8H-7,10-methanocyclopropa[18,19][1,10,3,6]dioxadiazacyclononadecino[11,12-b]quinoxaline-8-carboxamide]",0.28

# Same assay, conditions: read-out: Ki 3A, 200 pM enzyme, 20 μM NS4A peptide, 2 μM substrate
row,SMILES,Ki [nM]
1,"CCC[C@@H]1[C@@H]2CN(C(=O)[C@H](C(C)(C)C)NC(=O)O[C@@H]3C[C@H]3CCCCC(F)(F)c3nc4ccc(OC)cc4nc3O2)[C@@H]1C(=O)N[C@]1(C(=O)NS(=O)(=O)C2(C)CC2)C[C@H]1C(F)F [Example 65, (1aR,5S,8S,9S,10R,22aR)-5-tert-butyl-N-[(1R,2R)-2-(difluoromethyl)-1-{[(1-methylcyclopropyl)sulfonyl]carbamoyl}cyclopropyl]-18,18-difluoro-14-methoxy-3,6-dioxo-9-propyl-1,1a,3,4,5,6,9,10,18,19,20,21,22,22a-tetradecahydro-8H-7,10-methanocyclopropa[18,19][1,10,3,6]dioxadiazacyclononadecino[11,12-b]quinoxaline-8-carboxamide]",0.07
2,"COc1ccc2nc3c(nc2c1)O[C@H]1CN(C(=O)[C@H](C(C)(C)C)NC(=O)O[C@@H]2C[C@H]2CCCCC3)[C@H](C(=O)N[C@]2(C(=O)NS(=O)(=O)C3CC3)C[C@H]2CCF)[C@@H]1C [Example 22, (1aR,5S,8S,9S,10R,22aR)-5-tert-butyl-N-[(R1R,2S)-1-[(cyclopropylsulfonyl)carbamoyl]-2-(2-fluoroethyl)cyclopropyl]-14-methoxy-9-methyl-3,6-dioxo-1,1a,3,4,5,6,9,10,18,19,20,21,22,22a-tetradecahydro-8H-7,10-methanocyclopropa[18,19][1,10,3,6]dioxadiazacyclononadecino[11,12-b]quinoxaline-8-carboxamide]",1.3
